Measured values: ChEMBL document CHEMBL1201862, “PubChem BioAssay data set” (2004)
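Dose response: 5 concentrations. Exposure: 48 h. Format: 96-well plates. Endpoint: linear interpolation; highest concentration if not reached. The concentration for 50% growth inhibition is given as GI50.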 Calls of active or inactive are those of the source. Cut-off read from the data, not from the text of the source: active = GI50 up to about 1.1 µM and inactive = higher.

How the values were obtained:
Assay in all cases: inhibition of tumour cell growth, NCI panel, 48 h
786-0 = test system: 786-0
A498 = test system: A498
A549 = test system: A549
ACHN = test system: ACHN
CAKI-1 = test system: CAKI-1
CCRF-CEM = test system: CCRF-CEM
COLO 205 = test system: COLO 205
DLD-1 = test system: DLD-1
DMS-114 = test system: DMS-114
DMS-273 = test system: DMS-273
EKVX = test system: EKVX
HCC 2998 = test system: HCC 2998
HCT-116 = test system: HCT-116
HCT-15 = test system: HCT-15
HL-60 = test system: HL-60
HOP-18 = test system: HOP-18
HOP-62 = test system: HOP-62
HOP-92 = test system: HOP-92
HT-29 = test system: HT-29
IGROV-1 = test system: IGROV-1
K562 = test system: K562
KM-20L2 = test system: KM-20L2
KM12 = test system: KM12
LOX IMVI = test system: LOX IMVI
LXFL 529 = test system: LXFL 529
M14 = test system: M14
M19-MEL = test system: M19-MEL
MOLT-4 = test system: MOLT-4
Malme-3M = test system: Malme-3M
NCI-H226 = test system: NCI-H226
NCI-H23 = test system: NCI-H23
NCI-H522 = test system: NCI-H522
OVCAR-3 = test system: OVCAR-3
OVCAR-4 = test system: OVCAR-4
OVCAR-5 = test system: OVCAR-5
OVCAR-8 = test system: OVCAR-8
RPMI-8226 = test system: RPMI-8226
RXF 393 = test system: RXF 393
RXF 631 = test system: RXF 631
SF-268 = test system: SF-268
SF-295 = test system: SF-295
SF-539 = test system: SF-539
SK-MEL-28 = test system: SK-MEL-28
SK-MEL-2 = test system: SK-MEL-2
SK-MEL-5 = test system: SK-MEL-5
SK-OV-3 = test system: SK-OV-3
SN12C = test system: SN12C
SNB-19 = test system: SNB-19
SNB-75 = test system: SNB-75
SNB-78 = test system: SNB-78
SW-620 = test system: SW-620
TK-10 = test system: TK-10
U-251 = test system: U-251
UACC-257 = test system: UACC-257
UACC-62 = test system: UACC-62
UO-31 = test system: UO-31
NCI-H460 = test system: NCI-H460
SR = test system: SR

## CCOc1ccc(NCC2CC/C(=C\c3ccccc3OC)C2=O)cc1 (stereo not given)
786-0
  GI50: 3.01 µM (inactive)
A498
  GI50: 19.6 µM (inactive)
A549
  GI50: 17.9 µM (inactive)
ACHN
  GI50: 14.6 µM (inactive)
CAKI-1
  GI50: 12.5 µM (inactive)
CCRF-CEM
  GI50: 2.49 µM (inactive)
COLO 205
  GI50: 2.29 µM (inactive)
DLD-1
  GI50: 3.09 µM (inactive)
DMS-114
  GI50: 9.71 µM (inactive)
DMS-273
  GI50: 2.58 µM (inactive)
EKVX
  GI50: 17.4 µM (inactive)
HCC 2998
  GI50: 12.8 µM (inactive)
HCT-116
  GI50: 4.33 µM (inactive)
HCT-15
  GI50: 3.09 µM
HL-60
  GI50: 4.3 µM (inactive)
HOP-18
  GI50: 15.3 µM (inactive)
HOP-62
  GI50: 27.4 µM (inactive)
HOP-92
  GI50: 19.5 µM (inactive)
HT-29
  GI50: 3.3 µM (inactive)
IGROV-1
  GI50: 10.6 µM (inactive)
K562
  GI50: 2.7 µM (inactive)
KM-20L2
  GI50: 14 µM (inactive)
KM12
  GI50: 2.99 µM (inactive)
LOX IMVI
  GI50: 6.61 µM (inactive)
LXFL 529
  GI50: 2.56 µM (inactive)
M14
  GI50: 3.64 µM (inactive)
M19-MEL
  GI50: 8.95 µM (inactive)
MOLT-4
  GI50: 2.75 µM (inactive)
Malme-3M
  GI50: 14.4 µM (inactive)
NCI-H226
  GI50: 18.6 µM (inactive)
NCI-H23
  GI50: 19.2 µM (inactive)
NCI-H522
  GI50: 1.94 µM (inactive)
OVCAR-3
  GI50: 6.37 µM (inactive)
OVCAR-4
  GI50: 6.38 µM (inactive)
OVCAR-5
  GI50: 18.5 µM (inactive)
OVCAR-8
  GI50: 5.18 µM (inactive)
RPMI-8226
  GI50: 0.92 µM (active)
RXF 393
  GI50: 8.91 µM (inactive)
RXF 631
  GI50: 23.8 µM (inactive)
SF-268
  GI50: 7.29 µM (inactive)
SF-295
  GI50: 18 µM (inactive)
SF-539
  GI50: 10.3 µM (inactive)
SK-MEL-28
  GI50: 11 µM (inactive)
SK-MEL-2
  GI50: 20.3 µM (inactive)
SK-MEL-5
  GI50: 16.1 µM (inactive)
SK-OV-3
  GI50: 17 µM (inactive)
SN12C
  GI50: 7.1 µM (inactive)
SNB-19
  GI50: 15.9 µM (inactive)
SNB-75
  GI50: 14.6 µM (inactive)
SNB-78
  GI50: 16.5 µM (inactive)
SW-620
  GI50: 4.23 µM (inactive)
TK-10
  GI50: 13.8 µM (inactive)
U-251
  GI50: 14.3 µM (inactive)
UACC-257
  GI50: 7.38 µM (inactive)
UACC-62
  GI50: 11.8 µM (inactive)
UO-31
  GI50: 13.4 µM (inactive)

## COc1ccc(/N=N/c2c(N)nn(C)c2N)cc1
786-0
  GI50: > 100 µM (inactive)
A498
  GI50: > 100 µM (inactive)
A549
  GI50: > 100 µM (inactive)
ACHN
  GI50: > 100 µM (inactive)
CAKI-1
  GI50: > 100 µM (inactive)
CCRF-CEM
  GI50: 92.7 µM (inactive)
COLO 205
  GI50: > 100 µM (inactive)
DLD-1
  GI50: > 100 µM (inactive)
DMS-114
  GI50: > 100 µM (inactive)
DMS-273
  GI50: > 100 µM (inactive)
EKVX
  GI50: > 100 µM (inactive)
HCC 2998
  GI50: 0.319 µM (active)
HCT-116
  GI50: > 100 µM (inactive)
HCT-15
  GI50: > 100 µM
HL-60
  GI50: > 100 µM (inactive)
HOP-18
  GI50: 92.3 µM (inactive)
HOP-62
  GI50: > 100 µM (inactive)
HOP-92
  GI50: > 100 µM (inactive)
HT-29
  GI50: > 100 µM (inactive)
IGROV-1
  GI50: > 100 µM (inactive)
K562
  GI50: > 100 µM (inactive)
KM-20L2
  GI50: > 100 µM (inactive)
KM12
  GI50: > 100 µM (inactive)
LOX IMVI
  GI50: > 100 µM (inactive)
LXFL 529
  GI50: > 100 µM (inactive)
M14
  GI50: > 100 µM (inactive)
M19-MEL
  GI50: > 100 µM (inactive)
MOLT-4
  GI50: 82.8 µM (inactive)
Malme-3M
  GI50: > 100 µM (inactive)
NCI-H226
  GI50: > 100 µM (inactive)
NCI-H23
  GI50: > 100 µM (inactive)
NCI-H460
  GI50: > 100 µM (inactive)
NCI-H522
  GI50: > 100 µM (inactive)
OVCAR-3
  GI50: > 100 µM (inactive)
OVCAR-4
  GI50: > 100 µM (inactive)
OVCAR-5
  GI50: > 100 µM (inactive)
OVCAR-8
  GI50: > 100 µM (inactive)
RPMI-8226
  GI50: > 100 µM (inactive)
RXF 393
  GI50: > 100 µM (inactive)
RXF 631
  GI50: > 100 µM (inactive)
SF-268
  GI50: > 100 µM (inactive)
SF-295
  GI50: > 100 µM (inactive)
SF-539
  GI50: > 100 µM (inactive)
SK-MEL-28
  GI50: > 100 µM (inactive)
SK-MEL-2
  GI50: > 100 µM (inactive)
SK-MEL-5
  GI50: > 100 µM (inactive)
SK-OV-3
  GI50: > 100 µM (inactive)
SN12C
  GI50: > 100 µM (inactive)
SNB-19
  GI50: > 100 µM (inactive)
SNB-75
  GI50: 51.6 µM (inactive)
SNB-78
  GI50: > 100 µM (inactive)
SR
  GI50: 18.5 µM (inactive)
SW-620
  GI50: > 100 µM (inactive)
TK-10
  GI50: > 100 µM (inactive)
U-251
  GI50: > 100 µM (inactive)
UACC-257
  GI50: > 100 µM (inactive)
UACC-62
  GI50: > 100 µM (inactive)
UO-31
  GI50: > 100 µM (inactive)

## CCc1cccc(C(C)C)c1C1C(=O)C(=O)N(c2nc3ccccc3s2)C(=O)C1=O
786-0
  GI50: > 100 µM (inactive)
A498
  GI50: > 100 µM (inactive)
A549
  GI50: > 100 µM (inactive)
ACHN
  GI50: > 100 µM (inactive)
CAKI-1
  GI50: > 100 µM (inactive)
CCRF-CEM
  GI50: > 100 µM (inactive)
COLO 205
  GI50: > 100 µM (inactive)
DLD-1
  GI50: > 100 µM (inactive)
DMS-114
  GI50: > 100 µM (inactive)
DMS-273
  GI50: > 100 µM (inactive)
EKVX
  GI50: > 100 µM (inactive)
HCC 2998
  GI50: > 100 µM (inactive)
HCT-116
  GI50: > 100 µM (inactive)
HCT-15
  GI50: > 100 µM
HL-60
  GI50: > 100 µM (inactive)
HOP-18
  GI50: > 100 µM (inactive)
HOP-62
  GI50: > 100 µM (inactive)
HOP-92
  GI50: 38.7 µM (inactive)
HT-29
  GI50: > 100 µM (inactive)
IGROV-1
  GI50: > 100 µM (inactive)
K562
  GI50: > 100 µM (inactive)
KM-20L2
  GI50: > 100 µM (inactive)
KM12
  GI50: > 100 µM (inactive)
LOX IMVI
  GI50: > 100 µM (inactive)
LXFL 529
  GI50: > 100 µM (inactive)
M14
  GI50: > 100 µM (inactive)
M19-MEL
  GI50: > 100 µM (inactive)
MOLT-4
  GI50: > 100 µM (inactive)
Malme-3M
  GI50: > 100 µM (inactive)
NCI-H226
  GI50: > 100 µM (inactive)
NCI-H23
  GI50: > 100 µM (inactive)
NCI-H460
  GI50: > 100 µM (inactive)
OVCAR-3
  GI50: > 100 µM (inactive)
OVCAR-4
  GI50: > 100 µM (inactive)
OVCAR-5
  GI50: > 100 µM (inactive)
RPMI-8226
  GI50: > 100 µM (inactive)
RXF 393
  GI50: > 100 µM (inactive)
RXF 631
  GI50: > 100 µM (inactive)
SF-268
  GI50: > 100 µM (inactive)
SF-295
  GI50: > 100 µM (inactive)
SF-539
  GI50: > 100 µM (inactive)
SK-MEL-28
  GI50: > 100 µM (inactive)
SK-MEL-2
  GI50: > 100 µM (inactive)
SK-MEL-5
  GI50: > 100 µM (inactive)
SK-OV-3
  GI50: > 100 µM (inactive)
SN12C
  GI50: > 100 µM (inactive)
SNB-19
  GI50: 71.9 µM (inactive)
SNB-75
  GI50: > 100 µM (inactive)
SNB-78
  GI50: > 100 µM (inactive)
SR
  GI50: > 100 µM (inactive)
SW-620
  GI50: > 100 µM (inactive)
TK-10
  GI50: > 100 µM (inactive)
U-251
  GI50: > 100 µM (inactive)
UACC-257
  GI50: > 100 µM (inactive)
UACC-62
  GI50: > 100 µM (inactive)
UO-31
  GI50: > 100 µM (inactive)
